{
  "source": "patent US8815834B2",
  "about": "“Use of dendrimers to stimulate cell growth” (Centre National de la Recherche Scientifique, priority 2004, dated 2014)",
  "system": "human NK cells",
  "test": "Culture of PBMC with dendrimer and IL2: amplification and phenotype of NK cells",
  "settings": "in particular at a concentration of 20 μM; FIG. 4B",
  "procedure": "Peripheral blood mononuclear cells (PBMC) obtained from a healthy adult human donor by centrifugation over a density gradient (Ficoll-Hypaque, Amersham Pharmacia Biotech, Upsalla, SWEDEN) are cultured in sterile cell culture flasks at a concentration of 1.5 million cells per ml of culture medium of the RPMI 1640 type, 25 mM Hepes/Ultraglutamine 1 (Cambrex Bio Science, Verviers, BELGIUM) supplemented with: • i) 1 mM sodium pyruvate (Invitrogen Corporation, Paisley, UNITED KINGDOM) • ii) 100 μg/ml of streptomycin and 100 U/ml of penicillin (Cambrex Bio Science, Verviers, BELGIUM); • iii) 10% by volume of foetal calf serum (Invitrogen Corporation, Paisley, UNITED KINGDOM) decomplemented for 30 minutes at 56° C. (FCS); • iv) 20 μM of GC1 dendrimer solubilized at a concentration of 2 mM in sterile non-pyrogenic PBS; • v) 200 U/ml of human recombinant IL2 (Sanofi-Synthelabo, Paris, FRANCE) is added to the culture medium thus produced. […]\nThe PBMCs obtained from a healthy adult human donor are cultured for 15 days with GC1 then counted by total counting of the living cells (Ntot). […]\nThe NK cells obtained starting with PBMCs from healthy donors cultured under the conditions described previously are counted, at the start of the experiment then at the end of 3.5 weeks of culture. […]",
  "data": [
    {"smiles": "O=P(O)(O)CN(CCc1ccc(O)cc1)CP(=O)(O)O", "note": "[phenol-azabisphosphonic monomer derived from tyramine]", "values": [
      {"measurement": "Immunostimulant properties on the in vitro amplification of human NK cells", "value": "inactive"}
    ]}
  ]
}
